Measurements reported in the Kinase Knowledgebase extract (Sharma et al. 2016).

Legend:
PIK3CD (Human) = PIK3CD (Human) (UniProt O00329); assay: Enzyme Assay
PIK3CA (human) = PIK3CA (human) (UniProt P42336); assay: Enzyme Assay
Chain of PIK3CA (human) (P42336 whole entry, looked up): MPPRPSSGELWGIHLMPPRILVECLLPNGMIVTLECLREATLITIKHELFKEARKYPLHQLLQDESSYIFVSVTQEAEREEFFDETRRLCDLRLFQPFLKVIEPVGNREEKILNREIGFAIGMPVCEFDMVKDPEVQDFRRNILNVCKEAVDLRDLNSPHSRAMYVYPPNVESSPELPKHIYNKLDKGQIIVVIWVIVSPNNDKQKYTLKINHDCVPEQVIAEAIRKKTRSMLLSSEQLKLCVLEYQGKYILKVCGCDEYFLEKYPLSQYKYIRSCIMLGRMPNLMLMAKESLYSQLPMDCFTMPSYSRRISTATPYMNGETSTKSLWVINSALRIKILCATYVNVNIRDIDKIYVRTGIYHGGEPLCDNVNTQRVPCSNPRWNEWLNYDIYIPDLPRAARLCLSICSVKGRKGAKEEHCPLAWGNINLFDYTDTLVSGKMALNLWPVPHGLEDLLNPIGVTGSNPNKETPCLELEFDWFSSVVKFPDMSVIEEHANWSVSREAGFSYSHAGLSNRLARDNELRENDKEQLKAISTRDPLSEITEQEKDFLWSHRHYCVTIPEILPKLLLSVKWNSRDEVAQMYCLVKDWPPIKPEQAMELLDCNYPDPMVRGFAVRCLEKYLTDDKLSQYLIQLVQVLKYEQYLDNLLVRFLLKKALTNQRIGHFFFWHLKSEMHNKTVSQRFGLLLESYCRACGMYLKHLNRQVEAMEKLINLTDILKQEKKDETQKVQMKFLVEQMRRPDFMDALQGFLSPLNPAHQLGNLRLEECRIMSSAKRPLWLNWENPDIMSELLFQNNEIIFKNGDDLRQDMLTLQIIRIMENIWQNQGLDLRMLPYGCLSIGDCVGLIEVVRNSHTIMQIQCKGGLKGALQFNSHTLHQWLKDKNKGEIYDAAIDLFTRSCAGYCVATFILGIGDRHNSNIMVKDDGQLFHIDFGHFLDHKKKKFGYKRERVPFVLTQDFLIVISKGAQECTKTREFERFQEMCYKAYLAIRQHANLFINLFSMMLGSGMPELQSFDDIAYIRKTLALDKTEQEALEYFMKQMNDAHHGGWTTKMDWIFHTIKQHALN

Chain of PIK3CD (Human) (O00329 whole entry, looked up): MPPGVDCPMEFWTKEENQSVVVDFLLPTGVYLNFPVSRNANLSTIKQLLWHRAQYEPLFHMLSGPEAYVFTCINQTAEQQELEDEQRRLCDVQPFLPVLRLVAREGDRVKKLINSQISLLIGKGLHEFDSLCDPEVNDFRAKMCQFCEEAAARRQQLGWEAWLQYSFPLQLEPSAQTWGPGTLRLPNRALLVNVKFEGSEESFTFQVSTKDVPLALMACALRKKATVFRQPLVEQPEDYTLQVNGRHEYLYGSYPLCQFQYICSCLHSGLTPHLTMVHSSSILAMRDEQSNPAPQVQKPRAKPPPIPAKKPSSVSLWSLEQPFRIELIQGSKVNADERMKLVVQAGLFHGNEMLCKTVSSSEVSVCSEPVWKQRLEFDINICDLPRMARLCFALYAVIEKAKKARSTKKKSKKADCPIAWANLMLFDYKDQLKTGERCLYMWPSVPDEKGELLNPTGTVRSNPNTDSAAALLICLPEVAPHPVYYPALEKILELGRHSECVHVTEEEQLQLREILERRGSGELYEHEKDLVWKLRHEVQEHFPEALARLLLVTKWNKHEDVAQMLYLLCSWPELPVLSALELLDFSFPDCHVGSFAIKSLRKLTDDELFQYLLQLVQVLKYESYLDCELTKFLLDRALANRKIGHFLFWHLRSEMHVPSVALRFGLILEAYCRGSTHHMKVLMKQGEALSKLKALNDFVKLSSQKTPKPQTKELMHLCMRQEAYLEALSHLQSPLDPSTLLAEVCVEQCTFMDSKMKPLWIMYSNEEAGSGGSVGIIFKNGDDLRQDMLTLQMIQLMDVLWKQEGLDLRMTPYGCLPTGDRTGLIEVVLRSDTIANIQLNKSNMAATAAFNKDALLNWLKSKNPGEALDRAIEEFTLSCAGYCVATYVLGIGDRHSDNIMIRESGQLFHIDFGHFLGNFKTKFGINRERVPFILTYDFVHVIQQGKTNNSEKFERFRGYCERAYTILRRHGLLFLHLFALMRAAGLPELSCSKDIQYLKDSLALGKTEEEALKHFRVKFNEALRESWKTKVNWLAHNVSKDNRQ

Structure (SMILES) | IC50 (PIK3CD (Human)) | IC50 (PIK3CA (human))
CCC(Nc1ncnc2[nH]cnc12)c1cc2cccc(C)c2c(=O)n1-c1ccc(F)cc1 (stereo unspecified) | < 0.1 µM | –
CNC(=O)c1nn(Cc2cc3cccc(C)c3c(=O)n2-c2ccccc2)c2ncnc(N)c12 | 0.1 to 1 µM | > 10 µM
Cc1cccnc1-n1c(Cn2nc(-c3ccc4oc(N)nc4c3)c3c(N)ncnc32)cc2cccc(C)c2c1=O | < 0.1 µM | –
Cc1cccc2cc(Cn3nc(-c4cn[nH]c4)c4c(N)ncnc43)n(C3CCN(C)CC3)c(=O)c12 | 0.1 to 1 µM | –
Cc1cccnc1-n1c(Cn2nc(Br)c3c(N)ncnc32)cc2cccc(C)c2c1=O | 0.1 to 1 µM | > 10 µM
Cc1cccc2cc(Cn3nc(C(C)(C)O)c4c(N)ncnc43)n(-c3ccccc3)c(=O)c12 | > 10 µM | > 10 µM
CC(=O)c1nn(Cc2cc3cccc(C)c3c(=O)n2-c2ccccc2)c2ncnc(N)c12 | 0.1 to 1 µM | > 10 µM
Cc1cccc2cc(C(C)Nc3ncnc4[nH]cnc34)n(C3CCCC3)c(=O)c12 (stereo unspecified) | < 0.1 µM | –
Cc1cccc2cc(Cn3nc(C#C[C@@H](C)O)c4c(N)ncnc43)n(-c3ccccc3C(C)C)c(=O)c12 | – | > 10 µM
Cc1cccc2cc([C@H](C)Nc3ncnc4[nH]cnc34)n(-c3ccccc3)c(=O)c12 | < 0.1 µM | –
COCc1nn(Cc2cc3cccc(C)c3c(=O)n2-c2ccccc2C)c2ncnc(N)c12 | > 10 µM | > 10 µM
Cc1cccc2cc(Cn3nc(-c4ccc(F)c(O)c4)c4c(N)ncnc43)n(C(C)C)c(=O)c12 | – | > 10 µM
Cc1cccc2cc(Cn3nc(-c4cc(O)cc(F)c4)c4c(N)ncnc43)n(C3CCCCC3)c(=O)c12 | – | > 10 µM
Cc1cccnc1-n1c(Cn2nc(Cl)c3c(N)ncnc32)cc2cccc(C)c2c1=O | 0.1 to 1 µM | > 10 µM
Cc1nc2c(N[C@@H](C)c3cc4cccc(C)c4c(=O)n3-c3ccccc3)ncnc2[nH]1 | – | > 10 µM
Cc1cccc2cc([C@H](C)Nc3ncnc4[nH]cnc34)n(C(C)C)c(=O)c12 | < 0.1 µM | –
Cc1cccc2cc([C@@H](C)Nc3ncnc4[nH]cnc34)n(C3CC3)c(=O)c12 | > 10 µM | –
Cc1cccc2cc([C@H](C)Nc3nc(N)ncc3Cl)n(-c3ccccc3)c(=O)c12 | < 0.1 µM | > 10 µM
Cc1cccc2cc(C(C)Nc3ncnc4[nH]cnc34)n(-c3ccccc3)c(=O)c12 (stereo unspecified) | < 0.1 µM | –
Cc1ccccc1-n1c(Cn2nc(C#C[C@H](C)O)c3c(N)ncnc32)cc2cccc(C)c2c1=O | 0.1 to 1 µM | > 10 µM
Cc1ccccc1-n1c(Cn2nc(-c3nn[nH]n3)c3c(N)ncnc32)cc2cccc(C)c2c1=O | < 0.1 µM | –
Cc1cccc2cc([C@H](C)Nc3nc(N)ncc3C(F)(F)F)n(-c3ccccc3)c(=O)c12 | < 0.1 µM | > 10 µM
Cc1cccc2cc(Cn3nc(C#C[C@@H](C)O)c4c(N)ncnc43)n(C3CCCC3)c(=O)c12 | – | > 10 µM
CCC(Nc1ncnc2[nH]cnc12)c1cc2cccc(C)c2c(=O)n1-c1ccccc1 (stereo unspecified) | < 0.1 µM | > 10 µM
Cc1cccc2cc([C@H](C)Nc3nc(N)ncc3F)n(C3CC3)c(=O)c12 | – | > 10 µM
Cc1cccc2cc(C(C)Nc3ncnc4[nH]cnc34)n(-c3ccccc3F)c(=O)c12 (stereo unspecified) | – | > 10 µM

Structure (SMILES) | IC50 (PIK3CD (Human)) | IC50 (PIK3CA (human))
Cc1cccc2cc([C@H](C)Nc3nc(Cl)nc4[nH]cnc34)n(-c3ccccc3)c(=O)c12 | < 0.1 µM | –
Cc1cccc2cc([C@H](C)Nc3ncnc4[nH]ncc34)n(-c3ccccc3)c(=O)c12 | 0.1 to 1 µM | > 10 µM
Cc1cccc2cc(Cn3nc(I)c4c(N)ncnc43)n(C3CCCC3)c(=O)c12 | 0.1 to 1 µM | –
Cc1ccccc1-n1c(C(C)Nc2ncnc3[nH]cnc23)cc2cccc(C)c2c1=O (stereo unspecified) | – | > 10 µM
Cc1cccc2cc(C(C)Nc3ncnc4[nH]cnc34)n(CCN3CCOCC3)c(=O)c12 (stereo unspecified) | < 0.1 µM | –
Cc1cccc2cc([C@H](C)Nc3nc(F)nc4[nH]cnc34)n(-c3ccccc3)c(=O)c12 | < 0.1 µM | –
Cc1cccc2cc([C@H](C)Nc3ncnc4[nH]nc(Cl)c34)n(-c3ccccc3)c(=O)c12 | < 0.1 µM | > 10 µM
CCc1nn(Cc2cc3cccc(C)c3c(=O)n2-c2ccccc2)c2ncnc(N)c12 | < 0.1 µM | –
Cc1ccccc1-n1c(Cn2nc(C=CC(N)=O)c3c(N)ncnc32)cc2cccc(C)c2c1=O | – | > 10 µM
Cc1cccc2cc(Cn3nc(C(N)=O)c4c(N)ncnc43)n(-c3ccccc3)c(=O)c12 | 0.1 to 1 µM | –
Cc1cccc2cc(Cn3nc(-c4cc(O)cc(F)c4)c4c(N)ncnc43)n(C3CC3)c(=O)c12 | – | 0.1 to 1 µM
Cc1ccccc1-n1c(Cn2nc(C#C[C@@H](C)O)c3c(N)ncnc32)cc2ccccc2c1=O | 0.1 to 1 µM | > 10 µM
CC(Nc1ncnc2[nH]cnc12)c1cc2ccccc2c(=O)n1C1CCN(C)CC1 (stereo unspecified) | 0.1 to 1 µM | –
Cc1cccc2cc(Cn3nc(C#CC4CC4)c4c(N)ncnc43)n(-c3ccccc3F)c(=O)c12 | 0.1 to 1 µM | –
Cc1cccc2cc([C@H](C)Nc3ncnc4[nH]cnc34)n(C3CCC3)c(=O)c12 | < 0.1 µM | –
CCC(Nc1ncnc2[nH]cnc12)c1cc2cccc(C)c2c(=O)n1C(C)C (stereo unspecified) | < 0.1 µM | > 10 µM
Cc1cccc2cc(C(C)Nc3ncnc4[nH]cnc34)n(C3CCC3)c(=O)c12 (stereo unspecified) | < 0.1 µM | > 10 µM
Cc1cccc2cc([C@H](C)Nc3ncnc4[nH]ccc34)n(-c3ccccc3)c(=O)c12 | < 0.1 µM | > 10 µM
Cc1cccc2cc([C@H](C)NC(=O)c3cnn4ccccc34)n(-c3ccccc3)c(=O)c12 | > 10 µM | > 10 µM
Cc1ccccc1-n1c(Cn2nc(C(F)F)c3c(N)ncnc32)cc2cccc(C)c2c1=O | < 0.1 µM | –
CCC(Nc1ncnc2[nH]cnc12)c1cc2cccc(C)c2c(=O)n1C1CCN(C)CC1 (stereo unspecified) | 0.1 to 1 µM | > 10 µM
Cc1cccc2cc(C(C)Nc3ncnc4[nH]cnc34)n(CCN3CCCC3)c(=O)c12 (stereo unspecified) | < 0.1 µM | –
Cc1ccccc1-n1c(Cn2nc(C(=O)O)c3c(N)ncnc32)cc2cccc(C)c2c1=O | 0.1 to 1 µM | –
Cc1cccc2cc(Cn3nc(C#C[C@@H](C)O)c4c(N)ncnc43)n(C(C)C)c(=O)c12 | – | > 10 µM
Cc1cccc2cc([C@H](C)Nc3c(C#N)cnc4ccccc34)n(-c3ccccc3)c(=O)c12 | – | > 10 µM

The remaining lines, values ahead:

IC50 (PIK3CD (Human)) | IC50 (PIK3CA (human)) | Structure (SMILES)
– | > 10 µM | Cc1cccc2cc(Cn3nc(-c4cccc(O)c4)c4c(N)ncnc43)n(-c3ccccc3O)c(=O)c12
– | > 10 µM | Cc1ccccc1-n1c(Cn2nc(-c3ccc(O)c(Cl)c3)c3c(N)ncnc32)cc2cccc(C)c2c1=O
– | 0.1 to 1 µM | Cc1ccccc1-n1c(Cn2nc(-c3ccc4nc(N)ccc4c3)c3c(N)ncnc32)cc2cccc(C)c2c1=O
– | > 10 µM | Cc1cccc2cc(Cn3nc(-c4cccc(O)c4)c4c(N)ncnc43)n(C3CCC3)c(=O)c12
– | > 10 µM | Cc1ccccc1-n1c(Cn2nc(-c3cc(O)cc(F)c3)c3c(N)ncnc32)cc2ccccc2c1=O
– | 0.1 to 1 µM | CC(=O)Nc1nc2ccc(-c3nn(Cc4cc5cccc(C)c5c(=O)n4-c4ccccc4)c4ncnc(N)c34)cc2s1
– | > 10 µM | Cc1ccccc1-n1c(Cn2nc(I)c3c(N)ncnc32)cc2cccc(C)c2c1=O
– | > 10 µM | Cc1ccccc1-n1c(Cn2nc(Br)c3c(N)ncnc32)cc2cccc(C)c2c1=O
– | > 10 µM | Cc1cccnc1-n1c(Cn2nc(-c3ccc(Cl)c(O)c3)c3c(N)ncnc32)cc2cccc(C)c2c1=O
– | > 10 µM | Cc1cccc2cc(Cn3nc(-c4cccc(O)c4)c4c(N)ncnc43)n(-c3ccccc3Cl)c(=O)c12
0.1 to 1 µM | – | Cc1cccnc1-n1c(Cn2nc(-c3cccc(O)c3)c3c(N)ncnc32)cc2ccccc2c1=O
< 0.1 µM | – | Cc1cccc2cc(Cn3nc(-c4ccc5nc(N)[nH]c5c4)c4c(N)ncnc43)n(-c3ccccc3)c(=O)c12
0.1 to 1 µM | > 10 µM | Cc1ccccc1-n1c(Cn2nc(CO)c3c(N)ncnc32)cc2cccc(C)c2c1=O
– | > 10 µM | Cc1ccccc1-n1c(Cn2nc(-c3cccc(O)c3)c3c(N)ncnc32)cc2cccc(C)c2c1=O
– | > 10 µM | Cc1cccnc1-n1c(Cn2nc(-c3cc(O)cc(F)c3)c3c(N)ncnc32)cc2cccc(C)c2c1=O
0.1 to 1 µM | > 10 µM | CC(=O)Nc1nc2cc(-c3nn(Cc4cc5cccc(C)c5c(=O)n4-c4ccccc4C)c4ncnc(N)c34)ccc2s1
– | > 10 µM | Cc1ccccc1-n1c(Cn2nc(-c3cn[nH]c3)c3c(N)ncnc32)cc2cccc(C)c2c1=O

IC50 (PIK3CD (Human)) | IC50 (PIK3CA (human)) | Structure (SMILES)
– | > 10 µM | Cc1ccccc1-n1c(Cn2nc(-c3ccc4cc[nH]c4c3)c3c(N)ncnc32)cc2cccc(C)c2c1=O
< 0.1 µM | – | Cc1cccc2cc(Cn3nc(-c4ccc5oc(N)nc5c4)c4c(N)ncnc43)n(-c3ccccc3)c(=O)c12
0.1 to 1 µM | – | Nc1ncnc2c1c(-c1cccc(O)c1)nn2Cc1cc2cccc(F)c2c(=O)n1-c1ccccc1F
– | > 10 µM | Cc1ccccc1-n1c(Cn2nc(-c3ccc(O)c(F)c3)c3c(N)ncnc32)cc2cccc(C)c2c1=O
– | > 10 µM | Cc1ccccc1-n1c(Cn2nc(-c3cnc4[nH]ccc4c3)c3c(N)ncnc32)cc2cccc(C)c2c1=O
– | > 10 µM | Cc1cccc2cc(Cn3nc(-c4cccc(O)c4)c4c(N)ncnc43)n(C3CCCCC3)c(=O)c12
< 0.1 µM | – | Cc1ccccc1-n1c(Cn2nc(-c3ccc4nc(N)oc4c3)c3c(N)ncnc32)cc2cccc(C)c2c1=O
– | > 10 µM | COc1ccccc1-n1c(Cn2nc(-c3cccc(O)c3)c3c(N)ncnc32)cc2cccc(C)c2c1=O
– | 0.1 to 1 µM | Cc1cccc2cc(Cn3nc(-c4cc(O)cc(F)c4)c4c(N)ncnc43)n(-c3ccccc3)c(=O)c12
– | 0.1 to 1 µM | Cc1ccccc1-n1c(Cn2nc(-c3ccc4nc(N)sc4c3)c3c(N)ncnc32)cc2cccc(C)c2c1=O
0.1 to 1 µM | > 10 µM | Cc1cccc2cc(Cn3nc(-c4ccc5nc(N)cn5c4)c4c(N)ncnc43)n(-c3ccccc3)c(=O)c12
< 0.1 µM | – | CC(=O)Nc1nc2ccc(-c3nn(Cc4cc5cccc(C)c5c(=O)n4-c4ccccc4C)c4ncnc(N)c34)cc2[nH]1
< 0.1 µM | 0.1 to 1 µM | Cc1ccccc1-n1c(Cn2nc(-c3ccc4oc(N)nc4c3)c3c(N)ncnc32)cc2cccc(C)c2c1=O
< 0.1 µM | – | Cc1ccccc1-n1c(Cn2nc(-c3ccc4nc(N)[nH]c4c3)c3c(N)ncnc32)cc2cccc(C)c2c1=O
– | > 10 µM | Cc1ccccc1-n1c(Cn2nc(-c3ccc(Cl)c(O)c3)c3c(N)ncnc32)cc2cccc(C)c2c1=O
– | > 10 µM | Cc1ccccc1-n1c(Cn2nc(-c3ccc(F)c(O)c3)c3c(N)ncnc32)cc2cccc(C)c2c1=O
